Assay: xn = mol fraction of the nth substance listed
Settings: 101 kPa

Cn1cc[n+](CCCN)c1.F[B-](F)(F)F + CS(C)=O
Settings | electrical conductivity [S/m] | viscosity [mPa·s]
288.15 K, x1 = 0.1003 | 0.829 | 17.63
288.15 K, x1 = 0.2 | 0.632 | 34.87
288.15 K, x1 = 0.2997 | 0.465 | 54.65
288.15 K, x1 = 0.3997 | 0.288 | 75.94
288.15 K, x1 = 0.4998 | 0.187 | 98.4
288.15 K, x1 = 0.5999 | 0.124 | 122.2
288.15 K, x1 = 0.7001 | 0.078 | 147.4
288.15 K, x1 = 0.8109 | 0.044 | 176.7
288.15 K, x1 = 0.8998 | 0.023 | 201.6
288.15 K, x1 = 1 | 0.011 | 231.2
293.15 K, x1 = 0.1003 | 0.943 | 13.32
293.15 K, x1 = 0.2 | 0.716 | 26.44
293.15 K, x1 = 0.4998 | 0.222 | 76.63
293.15 K, x1 = 0.7001 | 0.097 | 116.9
293.15 K, x1 = 0.8109 | 0.056 | 140.8
293.15 K, x1 = 1 | 0.018 | 185.4
298.15 K, x1 = 0.2 | 0.81 | 20.51
298.15 K, x1 = 0.2997 | 0.609 | 32.66
298.15 K, x1 = 0.3997 | 0.395 | 45.88
298.15 K, x1 = 0.4998 | 0.268 | 60.22
298.15 K, x1 = 0.5999 | 0.186 | 76.06
298.15 K, x1 = 0.7001 | 0.122 | 93.45
298.15 K, x1 = 0.8109 | 0.072 | 113.4
298.15 K, x1 = 0.8998 | 0.046 | 130.1
303.15 K, x1 = 0.1003 | 1.22 | 7.961
303.15 K, x1 = 0.2 | 0.919 | 16.1
303.15 K, x1 = 0.3997 | 0.462 | 36.37
303.15 K, x1 = 0.4998 | 0.317 | 47.87
303.15 K, x1 = 0.5999 | 0.228 | 60.72
303.15 K, x1 = 1 | 0.04 | 121.1
308.15 K, x1 = 0.1003 | 1.37 | 6.38
308.15 K, x1 = 0.2 | 1.05 | 13.1
308.15 K, x1 = 0.2997 | 0.799 | 20.89
308.15 K, x1 = 0.3997 | 0.533 | 29.16
308.15 K, x1 = 0.4998 | 0.37 | 38.73
308.15 K, x1 = 0.5999 | 0.271 | 49.63
308.15 K, x1 = 0.7001 | 0.183 | 61.64
308.15 K, x1 = 0.8998 | 0.082 | 87.11
313.15 K, x1 = 0.2 | 1.17 | 10.81
313.15 K, x1 = 0.2997 | 0.894 | 17.08
313.15 K, x1 = 0.3997 | 0.617 | 24.03
313.15 K, x1 = 0.4998 | 0.435 | 31.72
313.15 K, x1 = 0.7001 | 0.221 | 50.72
313.15 K, x1 = 0.8998 | 0.105 | 72.01
313.15 K, x1 = 1 | 0.072 | 83.06
318.15 K, x1 = 0.1003 | 1.71 | 4.406
318.15 K, x1 = 0.2 | 1.32 | 8.853
318.15 K, x1 = 0.2997 | 1.01 | 14.22
318.15 K, x1 = 0.4998 | 0.506 | 26.45
318.15 K, x1 = 0.5999 | 0.378 | 33.63
318.15 K, x1 = 0.8109 | 0.183 | 51.83
318.15 K, x1 = 0.8998 | 0.134 | 60.04
318.15 K, x1 = 1 | 0.094 | 69.26
323.15 K, x1 = 0.1003 | 1.91 | 3.679
323.15 K, x1 = 0.2 | 1.47 | 7.468
323.15 K, x1 = 0.2997 | 1.13 | 11.79
323.15 K, x1 = 0.3997 | 0.81 | 16.67
323.15 K, x1 = 0.5999 | 0.446 | 28.21
323.15 K, x1 = 0.7001 | 0.314 | 35.29
323.15 K, x1 = 0.8109 | 0.223 | 43.46
323.15 K, x1 = 0.8998 | 0.17 | 50.38
328.15 K, x1 = 0.2997 | 1.26 | 10.06
328.15 K, x1 = 0.4998 | 0.659 | 18.73
328.15 K, x1 = 0.5999 | 0.515 | 24.2
328.15 K, x1 = 0.7001 | 0.369 | 30.06
328.15 K, x1 = 0.8109 | 0.269 | 37.19
328.15 K, x1 = 0.8998 | 0.21 | 43.13
328.15 K, x1 = 1 | 0.159 | 50.12
333.15 K, x1 = 0.1003 | 2.3 | 2.79
333.15 K, x1 = 0.2 | 1.78 | 5.508
333.15 K, x1 = 0.3997 | 1.04 | 12.05
333.15 K, x1 = 0.4998 | 0.749 | 16.07
333.15 K, x1 = 0.5999 | 0.593 | 20.41
333.15 K, x1 = 0.7001 | 0.431 | 25.32
333.15 K, x1 = 0.8109 | 0.323 | 31.21
333.15 K, x1 = 0.8998 | 0.258 | 36.19
333.15 K, x1 = 1 | 0.203 | 42.31
338.15 K, x1 = 0.1003 | 2.53 | 2.4
338.15 K, x1 = 0.2 | 1.97 | 4.865
338.15 K, x1 = 0.2997 | 1.55 | 7.311
338.15 K, x1 = 0.4998 | 0.849 | 13.77
338.15 K, x1 = 0.5999 | 0.682 | 17.48
338.15 K, x1 = 0.7001 | 0.496 | 21.74
338.15 K, x1 = 0.8998 | 0.312 | 31.24
343.15 K, x1 = 0.2 | 2.17 | 4.241
343.15 K, x1 = 0.2997 | 1.71 | 6.401
343.15 K, x1 = 0.3997 | 1.3 | 8.856
343.15 K, x1 = 0.4998 | 0.948 | 11.78
343.15 K, x1 = 0.7001 | 0.572 | 19.03
343.15 K, x1 = 0.8109 | 0.449 | 23.52
343.15 K, x1 = 0.8998 | 0.374 | 27.44
343.15 K, x1 = 1 | 0.308 | 32.15
348.15 K, x1 = 0.1003 | 3.02 | 2.048
348.15 K, x1 = 0.2 | 2.37 | 3.722
348.15 K, x1 = 0.2997 | 1.88 | 5.565
348.15 K, x1 = 0.3997 | 1.46 | 7.954
348.15 K, x1 = 0.4998 | 1.07 | 10.3
348.15 K, x1 = 0.5999 | 0.877 | 13.38
348.15 K, x1 = 0.7001 | 0.656 | 16.16
348.15 K, x1 = 0.8109 | 0.524 | 20.12
348.15 K, x1 = 0.8998 | 0.445 | 23.5
348.15 K, x1 = 1 | 0.374 | 27.51
353.15 K, x1 = 0.1003 | 3.27 | 1.997
353.15 K, x1 = 0.2 | 2.58 | 3.564
353.15 K, x1 = 0.2997 | 2.07 | 5.199
353.15 K, x1 = 0.4998 | 1.19 | 9.541
353.15 K, x1 = 0.5999 | 0.978 | 12.09
353.15 K, x1 = 0.7001 | 0.749 | 14.98
353.15 K, x1 = 0.8109 | 0.608 | 18.65
353.15 K, x1 = 0.8998 | 0.522 | 21.71
353.15 K, x1 = 1 | 0.457 | 25.41

— a compilation of properties of binary mixtures (doi:10.1007/s10953-023-01258-3)
